# Test results: publication PMC4490394 (Scientific Reports, 2015)
# Several values for one entry are separate records, joined by “and”; a condition that tells them apart may be missing. Identical values can stand only once.
# Assays:
# [1] = Body weight of mice bearing subcutaneous VCaP xenograft tumors; format: in vivo, castrated nude mice; conditions: for Change in body weight (%) d 3 / Change in body weight (%) d 9 / Change in body weight (%) d 16 / Change in body weight (%) d 23 / Change in body weight (%) d 30 / Change in body weight (%) d 37: individual animals, vs BW before treatment, 50 mg/kg
# Description: BALB/c nude male mice (7 weeks old from Charles River, Germany) were subcutaneously injected with 2 million VCaP cells in 100 μL of RPMI-1640 medium and Matrigel (BD) (1:1). Tumor growth was monitored twice weekly by caliper measurements. The volume of the tumor was calculated according to the formula W^2 × L/2 (mm^3), where W is the shorter and L the longer diameter of the tumor. When the average tumor volume reached ~200 mm^3, mice were castrated or SHAM-operated under Avertin anesthesia. […] For all in vivo studies, Macrocol® (Merck) + propylene glycol +5% glucose (50:30:20, v/v/v) was used as a vehicle.
# subcutaneous VCaP tumors = assay: Castration-resistant VCaP xenograft, tumor volume; format: in vivo, castrated nude mice; conditions: 37 days
# [2] = Quantitative whole-body autoradiography (QWBA); format: in vivo; conditions: rat, compound and its metabolites, data not shown
# VCaP cells = assay: VCaP proliferation assay (WST-1); format: cell-based; conditions: Homo sapiens, 96 h, 0.1 nM mibolerone, steroid-depleted medium, 4 days, WST-1, read-out: IC50, androgen-induced VCaP cell proliferation
# Description: VCaP cells were treated with a submaximal concentration of mibolerone (0.1 nM) and increasing concentrations of test compounds in steroid-free assay medium supplemented with 4 mM GlutaMAX. After a 4-day incubation with the compounds, cell viability was measured using a WST-1 cell proliferation assay (Roche), according to manufacturer’s instructions.
# [3] = Pharmacokinetic parameters in mice after 7 days oral dosing; format: in vivo; conditions: male, BALB/c or Balb/cOlaHsd nude, mouse, plasma, 50 mg/kg bid oral
# Description: Control mice received vehicle. […] Brain samples (without olfactory bulbs and medulla oblongata) from each group and time point were pooled and homogenized before the analysis. […] Plasma and brain concentration vs. time were evaluated by noncompartmental analysis using WinNonlin® Professional v. 5.2 software (Pharsight Corporation). Brain/plasma ratios were calculated based on AUC0–24 values for plasma and brain.
# H1581 lung cancer cells = assay: Viability of AR-negative cells (WST-1); format: cell-based, human; conditions: increasing concentrations, 4 days
# serum testosterone = assay: Serum testosterone in intact nude mice bearing orthotopic VCaP tumors; format: in vivo; conditions: 50 mg/kg bid oral, 3 weeks
# Description: One million VCaP cells in 20 μL of RPMI-1640 medium were orthotopically injected into the dorsal prostate lobes of athymic nude male mice (7 weeks old from Harlan Winkelman, France). Tumor growth was followed by measuring serum PSA (ProStatus™ PSA EQM Kits, Wallac, Finland). […] At autopsy, blood samples were collected by heart puncture, clotted overnight at +4 °C, and centrifuged. For serum testosterone determination, 25-μL aliquots were extracted twice with 2 mL of diethyl ether and evaporated under nitrogen to dryness. The residues were reconstituted in PBS and measured using a standard radioimmunoassay as described previously.
# PSA = conditions: chemotherapy-naïve CRPC patients, 700 mg twice daily, ARADES study ref 28; cited from earlier work
# AR(T877A) = molecular target: T1, AR(T877A) (Homo sapiens, UniProt P10275, T878A)
# T1 sequence (P10275 1-920 T878A): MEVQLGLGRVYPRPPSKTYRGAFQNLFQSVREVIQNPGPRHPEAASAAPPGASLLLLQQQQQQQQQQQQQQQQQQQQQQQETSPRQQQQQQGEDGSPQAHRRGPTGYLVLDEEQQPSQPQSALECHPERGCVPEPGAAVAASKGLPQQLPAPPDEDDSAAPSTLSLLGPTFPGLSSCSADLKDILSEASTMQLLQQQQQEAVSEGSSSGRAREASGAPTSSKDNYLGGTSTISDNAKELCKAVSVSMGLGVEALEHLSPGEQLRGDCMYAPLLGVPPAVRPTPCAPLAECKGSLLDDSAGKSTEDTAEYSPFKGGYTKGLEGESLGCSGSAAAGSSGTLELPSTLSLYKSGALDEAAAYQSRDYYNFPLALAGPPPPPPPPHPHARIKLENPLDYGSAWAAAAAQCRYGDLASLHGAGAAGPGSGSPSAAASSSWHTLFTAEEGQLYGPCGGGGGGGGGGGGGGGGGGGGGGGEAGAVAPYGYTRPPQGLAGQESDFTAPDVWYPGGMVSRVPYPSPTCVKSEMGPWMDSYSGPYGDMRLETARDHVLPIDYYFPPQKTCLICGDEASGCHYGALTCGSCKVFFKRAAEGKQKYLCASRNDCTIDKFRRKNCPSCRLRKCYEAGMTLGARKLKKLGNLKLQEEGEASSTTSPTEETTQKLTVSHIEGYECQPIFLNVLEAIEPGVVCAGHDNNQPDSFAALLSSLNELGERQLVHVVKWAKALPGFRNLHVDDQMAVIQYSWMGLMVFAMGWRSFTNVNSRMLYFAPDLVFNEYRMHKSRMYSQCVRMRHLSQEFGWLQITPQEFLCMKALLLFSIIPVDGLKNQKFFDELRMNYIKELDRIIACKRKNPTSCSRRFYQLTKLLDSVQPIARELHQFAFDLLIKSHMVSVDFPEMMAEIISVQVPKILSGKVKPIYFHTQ
# Description: For one well in a 96-well plate, 190 ng of reporter construct DNA and 10 ng of receptor construct DNA were diluted in Opti-MEM® (Gibco). […] Luciferase activity was measured as described above.
smiles,measurement,setting,value
CC(O)c1cc(C(=O)N[C@@H](C)Cn2ccc(-c3ccc(C#N)c(Cl)c3)n2)[nH]n1 (some centres unmarked) [ODM-201],body weights during the treatment,"[1]; 50 mg/kg twice daily oral, 37 days",did not decrease significantly
same,Change in body weight (%) d 3,[1]; ODM-201 50 mg/kg bid oral,-0.4% and 0.0% and -2.8% and -1.9% and -1.3% and -4.9% and -2.9%
same,Change in body weight (%) d 9,[1]; ODM-201 50 mg/kg bid oral,-2.1% and -2.5% and -9.8% and -0.9% and -0.5% and -4.5% and -6.9% and -1.9%
same,Change in body weight (%) d 16,[1]; ODM-201 50 mg/kg bid oral,1.7% and -4.9% and 5.6% and 3.3% and 0.4% and -4.5% and -1.0%
same,Change in body weight (%) d 23,[1]; ODM-201 50 mg/kg bid oral,-1.7% and -6.5% and -2.8% and 0.5% and -5.4% and -11.4% and -7.2%
same,Change in body weight (%) d 30,[1]; ODM-201 50 mg/kg bid oral,-1.3% and 0.8% and -6.1% and -3.8% and 3.8% and -3.6% and -1.6% and -3.4%
same,Change in body weight (%) d 37,[1]; ODM-201 50 mg/kg bid oral,0.4% and -6.1% and -0.5% and -6.7% and -1.2% and -6.3%
same,Change in body weight (%) d 3,[1]; ODM-201 50 mg/kg qd oral,-2.5% (2×) and -1.3% and -2.0% and -2.9% and -0.5% and -2.3% and -3.8% and -4.7% and 9.0%
same,Change in body weight (%) d 9,[1]; ODM-201 50 mg/kg qd oral,2.2% and -1.7% and 3.5% and 6.9% and -4.9% and 3.9% and 1.8% and -0.8% and -7.7% and 7.5%
same,Change in body weight (%) d 16,[1]; ODM-201 50 mg/kg qd oral,-1.3% and 3.0% and 14.7% and 2.5% and -5.7% and 6.9% and 0.5% and 3.8% and 1.3% and 9.5%
same,Change in body weight (%) d 23,[1]; ODM-201 50 mg/kg qd oral,6.0% and -8.2% and 4.4% and -4.9% and -1.3% and -0.5% and 0.9% and -0.4%
same,Change in body weight (%) d 30,[1]; ODM-201 50 mg/kg qd oral,1.5% and -3.9% and 2.5% and 8.3% and -4.1% and 2.0% and 1.8% and 0.0% and -0.4%
same,Change in body weight (%) d 37,[1]; ODM-201 50 mg/kg qd oral,5.0% and -6.5% and 1.5% and 6.9% and -7.8% and 2.5% and 1.8% and -0.8% and -4.6%
same,antitumor activity (tumor volume),"subcutaneous VCaP tumors; 50 mg/kg oral once daily, vs castrated untreated mice",significant antitumor activity
same,antitumor activity (tumor volume),"subcutaneous VCaP tumors; 50 mg/kg oral twice daily, p < 0.001 vs castrated untreated mice, p = 0.0245 vs enzalutamide",significant antitumor activity
same,access into the brain (QWBA),[2],very low access
same,IC50,VCaP cells,230 nM
same,AUC,[3]; read-out: AUC24,175 µg·h/mL
same,half-life,[3]; read-out: T 1/2 (plasma half-life) (converted),96 min
same,effect on viability of H1581 cells,H1581 lung cancer cells,no effect
same,effect on serum testosterone levels,serum testosterone,did not affect
same,"PSA response (50% or greater decrease), share of patients",PSA,86%
same,functional activity (agonist/antagonist) on AR(T877A),AR(T877A),full antagonists
